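All cell lines were grown in 96-well plates and treated with compound for 48 hours. At the GI50, growth is halved. TGI denotes the concentration required for complete inhibition of growth.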
Assays:
Experiment in all cases: NCI-60 cell line screen, 48 h
OVCAR-4 ovarian = test system: OVCAR-4 ovarian
COLO 205 colon = test system: COLO 205 colon
OVCAR-3 ovarian = test system: OVCAR-3 ovarian
SF-539 CNS = test system: SF-539 CNS
NCI-H460 lung = test system: NCI-H460 lung
ACHN renal = test system: ACHN renal
NCI-H23 lung = test system: NCI-H23 lung
U251 CNS = test system: U251 CNS
HOP-92 NSCLC = test system: HOP-92 NSCLC
LOX IMVI melanoma = test system: LOX IMVI melanoma

| Structure (SMILES) | TGI (OVCAR-4 ovarian) [µM] | TGI (COLO 205 colon) [µM] | TGI (OVCAR-3 ovarian) [µM] | TGI (SF-539 CNS) [µM] | TGI (NCI-H460 lung) [µM] | TGI (ACHN renal) [µM] | TGI (NCI-H23 lung) [µM] | TGI (U251 CNS) [µM] | TGI (HOP-92 NSCLC) [µM] | TGI (LOX IMVI melanoma) [µM] | GI50 (OVCAR-4 ovarian) [nM] | GI50 (COLO 205 colon) [µM] | GI50 (OVCAR-3 ovarian) [µM] | GI50 (SF-539 CNS) [µM] | GI50 (NCI-H460 lung) [µM] | GI50 (ACHN renal) [µM] | GI50 (NCI-H23 lung) [µM] | GI50 (U251 CNS) [µM] | GI50 (HOP-92 NSCLC) [µM] | GI50 (LOX IMVI melanoma) [nM] |
| --- | --- | --- | --- | --- | --- | --- | --- | --- | --- | --- | --- | --- | --- | --- | --- | --- | --- | --- | --- | --- |
| Cc1ccccc1NC(=O)CC(=O)n1nc(-c2ccccc2)c(N=Nc2ccc([N+](=O)[O-])cc2)c1-c1ccccc1 | > 100 | 30.5 | 37.3 | 52 | > 100 | 44.5 | > 100 | 34.6 | 34 | 46.6 | – | – | – | – | – | – | – | – | – | – |
| CC1=C(C(=O)NCc2ccccc2)C(c2ccccc2O)C(C(=O)NCc2ccccc2)=C(C)N1 | 35.4 | 30.9 | 31.9 | 38.5 | 39.2 | 30.9 | 34.1 | 29.5 | 48.7 | 30.1 | – | – | – | – | – | – | – | – | – | – |
| COC(=O)CCc1c(/C=C2\N=C(c3ccc[nH]3)C=C2OC)[nH]c(C)c1C(=O)OCc1ccccc1 | > 100 | 2.03 | 1.64 | 1.83 | > 61.9 | 1.1 | 4.31 | 2.28 | 0.73 | 0.418 | 331 | 0.341 | 0.34 | 0.363 | 0.958 | 0.297 | 0.795 | 0.36 | 0.197 | 169 |
| Nc1ncnc2c1ncn2C1OC(C(=O)OCCO)C(O)C1O (stereo not given) | > 100 | > 100 | > 100 | > 100 | > 100 | > 100 | > 100 | > 100 | > 100 | > 100 | – | – | – | – | – | – | – | – | – | – |
| CC(=O)Nc1ccccc1S(=O)c1ccccc1 (stereo not given) | > 100 | > 100 | > 100 | > 100 | > 100 | > 100 | > 100 | > 100 | > 100 | > 100 | – | – | – | – | – | – | – | – | – | – |
| CC(=O)Nc1ccc(OCC(O)CO)cc1 (stereo not given) | > 100 | > 100 | > 100 | > 100 | > 100 | > 100 | > 100 | > 100 | > 100 | 73.1 | – | – | – | – | – | – | – | – | – | – |
| O=C1C=C(OCC=C(Cl)Cl)C(=O)c2ccccc21 | 3 | 12.1 | 4.13 | > 100 | > 100 | 99.7 | > 85 | 13.8 | 9.28 | 4.35 | 1610 | 4.39 | 1.9 | 43.9 | 39.3 | 7.02 | 3.63 | 2.41 | 2.68 | 1090 |
| COn1cc(C(=O)N=C(SC)SC)c2ccccc21 | > 100 | > 100 | 51.5 | 43.4 | > 100 | 47.7 | 60.3 | 70.6 | > 100 | 50.6 | > 100000 | 30.2 | 17.8 | 18.7 | > 100 | 22 | 27.2 | 22.3 | 27.7 | 17600 |
| N#CC12CC3(CCC1CCC1(C2)OCCO1)OCCO3 (stereo not given) | > 100 | > 100 | > 100 | > 100 | > 100 | > 100 | > 100 | > 100 | > 100 | > 100 | – | – | – | – | – | – | – | – | – | – |
| CN/N=C(/CC(=O)c1sc(NNC(C)=O)nc1C)C(=O)Nc1ccc(OC)cc1OC | > 100 | > 100 | > 100 | > 100 | > 100 | > 100 | > 100 | > 100 | > 100 | > 100 | – | – | – | – | – | – | – | – | – | – |
| COC(=O)C1=C(O)C(C(=O)OC)[C@@]2(O)[C@@H](C(=O)OC)C(c3ccccc3Cl)C[C@@H]1[C@@H]2C(=O)OC (stereo not given in full) | 13.8 | 31.5 | 16.1 | 36.7 | > 100 | 23.4 | 23.3 | 15 | 54.2 | 17 | 3440 | 14.1 | 4.48 | 14 | 10.7 | 5.96 | 9.79 | 3.76 | 16.1 | 4430 |
| ClCCCN1CCCCC1CCl (stereo not given) | > 100 | > 100 | > 100 | > 100 | > 100 | > 100 | > 100 | > 100 | > 100 | > 100 | – | – | – | – | – | – | – | – | – | – |

Source: PubChem BioAssay (NCI)
